How the values were obtained:
[1] = Metabolism in human liver; type: in vitro ADME
Description: Moreover, it has also been determined that the derivatives (B), (C) and (D) are metabolized in human liver, whereas verbascoside (derivative (A)) is stable.

[2] = Stability in fed intestinal fluid (FESSIF), HPLC; type: in vitro ADME; settings: fed-state simulated intestinal fluid (FESSIF), pH=5, read-out: FESSIF t1/2
Method: (§1) The stability of the compounds of formula (I) was measured under physiological conditions.
(§2) The stability measurement was conducted by means of analytic HPLC techniques with a UV detector at 330 nm. The half-life is reported (in hours).

[3] = tested on: platelet aggregation (PA); test: Phase II study: arachidonic acid-induced platelet aggregation by light transmission aggregometry; type: in vivo, human; settings: platelets stimulated with 1 µM AA
Method: (§3) A randomized, double-blind Phase II study was conducted to evaluate verbascoside activity in modulating the platelet aggregation (PA) values on subjects with at least one cardiovascular risk factor, selected from: age over 65 years, diabetes mellitus, hypertension, smoke, hyperlipidemia, waist circumference greater than 102 cm in men or 88 cm in women. Patients under pharmacological treatment with platelet antiaggregants (aspirin, clopidogrel, ticlopidine, prasugrel, ticagrelor), with anticoagulants (e.g. warfarin) or with oral contraceptives, were excluded. Other exclusion criteria were: events of myocardial infarction, coronary revascularization (percutaneous or surgical), infarction, temporary ischemic attack, peripheral vascular pathology, and the consumption of corticosteroids and/or non-steroidal anti-inflammatory drugs in the last month.
(§4) The experimentation was conducted on 100 subjects. […]
(§5) PA was determined by means of light transmission aggregometry according to standard protocols. […] The aggregation was measured at 37°C with a PACKS-4 aggregometer (Helena Laboratories). The curves were recorded for 6 min. The aggregation was measured at a maximum aggregation (maximum PA) and at 5 min (delayed PA). […]

[4] = tested on: platelet aggregation (PA); test: Phase II study: ADP-induced platelet aggregation by light transmission aggregometry; type: in vivo, human; settings: platelets stimulated with 5 µM ADP
Method: as §3, §4, §5

[5] = Stability in blood, HPLC; type: in vitro ADME
Method: as §1, §2

[6] = Stability in fasted intestinal fluid (FASSIF), HPLC; type: in vitro ADME; settings: pH=6.5
Method: as §1, §2

[7] = Oxidation stability as antioxidant power against the DPPH radical; type: physicochemical; settings: 100 µM DPPH in methanol, 15 min in the dark at room temperature, 515 nm
Method: The oxidation stability of the compounds of formula (I) was evaluated as a function of their antioxidant power, determined as the reactivity of the compound against the stable radical 2,2-diphenyl-1-picrylhydrazyl (DPPH) in solution. High reactivity means poor stability under oxidizing conditions.
A 100 µM solution of DPPH in methanol, prepared from a 1 mM solution, then diluted at 1:10 was used for the determination.
The following final dilutions (from a solution in methanol having a double concentration) of the compound of formula (I) to be analyzed were prepared: 500 µg/mL, 100 µg/mL, 50 µg/mL, 10 µg/mL, 5 µg/mL, 2.5 µg/mL, 1 µg/mL, 0.5 µg/mL, 0.1 µg/mL, 0.05 µg/mL, 0 µg/mL.
500 µl of the compound to be tested at a certain concentration and 500 µl of DPPH were placed in a cuvette, they were all mixed and incubated in the dark at room temperature for 15 min.
The solution was analyzed with a spectrophotometer at a wavelength of 515 nm (methanol as white).
The color in the cuvettes varies from violet (DPPH without compound of formula (I)) to straw-yellow (DPPH with maximum inhibitory concentration of the compound of formula (I)).
The percent inhibition of the radical reaction is defined as: [(Absmax(DPPHalone)−Abs(DPPH+compound))/Absmax] × 100. [formula] […]

[8] = Stability in gastric fluids (SGF), HPLC; type: in vitro ADME; settings: pH=1.6
Method: as §1, §2

C[C@@H]1O[C@@H](O[C@@H]2[C@@H](O)[C@H](OCCc3ccc(O)c(O)c3)O[C@H](CO)[C@H]2OC(=O)/C=C/c2ccc(O)c(O)c2)[C@H](O)[C@H](O)[C@H]1O [(A), Verbascoside]
metabolized in human liver [1]: stable | half-life [2]: > 24 h | Arachidonic acid-induced maximum PA ([3]; after 2 weeks of 50 mg/day, time 0 value 50±9%, p=0.4): 48±10% | Arachidonic acid-induced maximum PA ([3]; after 2 weeks of 100 mg/day, time 0 value 51±13%, p<0.01): 39±15% | ADP-induced maximum PA ([4]; after 2 weeks of 50 mg/day, time 0 value 58±8%, p=0.5): 56±9% | ADP-induced maximum PA ([4]; after 2 weeks of 100 mg/day, time 0 value 60±12%, p<0.01): 49±15% | Blood t1/2 [5]: stable | FASSIF t1/2 [6]: stable | Inhibitory activity (IC50) [7]: 2 mg/L | SGF t1/2 [8]: STABLE
